These molecules were tested on BRD pathogens, M. haemolytica and P. multocida (assay: MIC screening panel of BRD pathogens (antibacterial / non-antibacterial)). Settings: read-out: antibacterial / non-antibacterial (MIC for the BRD pathogens).

Row | SMILES | MIC
1 | CC[C@H]1OC(=O)[C@H](C)[C@@H](O)[C@H](C)[C@@H](O[C@@H]2O[C@H](C)C[C@H](N(C)C(=O)Nc3ccccc3C)[C@H]2O)[C@](C)(O)C[C@@H](C)CN[C@H](C)[C@@H](O)[C@]1(C)O [Example A-14, 1-((2S,3R,4S,6R)-2-(((2R,3S,4R,5R,8R,10R,11R,12S,13S,14R)-2-ethyl-3,4,10,13-tetrahydroxy-3,5,8,10,12,14-hexamethyl-15-oxo-1-oxa-6-azacyclopentadecan-11-yl)oxy)-3-hydroxy-6-methyltetrahydro-2H-pyran-4-yl)-1-methyl-3-(o-tolyl)urea] | > 64 µg/mL
2 | CC[C@H]1OC(=O)[C@H](C)[C@@H](O)[C@H](C)[C@@H](O[C@@H]2O[C@H](C)C[C@H](N(C)C(=O)Nc3ccc(C(F)(F)F)cc3)[C@H]2O)[C@](C)(O)C[C@@H](C)CN[C@H](C)[C@@H](O)[C@]1(C)O [Example A-15, 1-((2S,3R,4S,6R)-2-(((2R,3S,4R,5R,8R,10R,11R,12S,13S,14R)-2-ethyl-3,4,10,13-tetrahydroxy-3,5,8,10,12,14-hexamethyl-15-oxo-1-oxa-6-azacyclopentadecan-11-yl)oxy)-3-hydroxy-6-methyltetrahydro-2H-pyran-4-yl)-1-methyl-3-(4-(trifluoromethyl)phenyl)urea] | > 64 µg/mL
3 | CC[C@H]1OC(=O)[C@H](C)[C@@H](O)[C@H](C)[C@@H](O[C@@H]2O[C@H](C)C[C@H](N(C)C(=O)Nc3ccccc3C(F)(F)F)[C@H]2O)[C@](C)(O)C[C@@H](C)CN[C@H](C)[C@@H](O)[C@]1(C)O [Example A-16, 1-((2S,3R,4S,6R)-2-(((2R,3S,4R,5R,8R,10R,11R,12S,13S,14R)-2-ethyl-3,4,10,13-tetrahydroxy-3,5,8,10,12,14-hexamethyl-15-oxo-1-oxa-6-azacyclopentadecan-11-yl)oxy)-3-hydroxy-6-methyltetrahydro-2H-pyran-4-yl)-1-methyl-3-(2-(trifluoromethyl)phenyl)urea] | > 64 µg/mL
4 | CC[C@H]1OC(=O)[C@H](C)[C@@H](O)[C@H](C)[C@@H](O[C@@H]2O[C@H](C)C[C@H](N(C)C(=O)Nc3ccccc3F)[C@H]2O)[C@](C)(O)C[C@@H](C)CN[C@H](C)[C@@H](O)[C@]1(C)O [Example A-17, 1-((2S,3R,4S,6R)-2-(((2R,3S,4R,5R,8R,10R,11R,12S,13S,14R)-2-ethyl-3,4,10,13-tetrahydroxy-3,5,8,10,12,14-hexamethyl-15-oxo-1-oxa-6-azacyclopentadecan-11-yl)oxy)-3-hydroxy-6-methyltetrahydro-2H-pyran-4-yl)-3-(2-fluorophenyl)-1-methylurea] | > 64 µg/mL
5 | CC[C@H]1OC(=O)[C@H](C)[C@@H](O)[C@H](C)[C@@H](O[C@@H]2O[C@H](C)C[C@H](N(C)C(=O)Nc3ccc(F)cc3)[C@H]2O)[C@](C)(O)C[C@@H](C)CN[C@H](C)[C@@H](O)[C@]1(C)O [Example A-18, 1-((2S,3R,4S,6R)-2-(((2R,3S,4R,5R,8R,10R,11R,12S,13S,14R)-2-ethyl-3,4,10,13-tetrahydroxy-3,5,8,10,12,14-hexamethyl-15-oxo-1-oxa-6-azacyclopentadecan-11-yl)oxy)-3-hydroxy-6-methyltetrahydro-2H-pyran-4-yl)-3-(4-fluorophenyl)-1-methylurea] | > 64 µg/mL
6 | CC[C@H]1OC(=O)[C@H](C)[C@@H](O)[C@H](C)[C@@H](O[C@@H]2O[C@H](C)C[C@H](N(C)C(=O)Nc3ccc(Cl)cc3)[C@H]2O)[C@](C)(O)C[C@@H](C)CN[C@H](C)[C@@H](O)[C@]1(C)O [Example A-19, 3-(4-chlorophenyl)-1-((2S,3R,4S,6R)-2-(((2R,3S,4R,5R,8R,10R,11R,12S,13S,14R)-2-ethyl-3,4,10,13-tetrahydroxy-3,5,8,10,12,14-hexamethyl-15-oxo-1-oxa-6-azacyclopentadecan-11-yl)oxy)-3-hydroxy-6-methyltetrahydro-2H-pyran-4-yl)-1-methylurea] | > 64 µg/mL
7 | CC[C@H]1OC(=O)[C@H](C)[C@@H](O)[C@H](C)[C@@H](O[C@@H]2O[C@H](C)C[C@H](N(C)C(=O)Nc3cccc(F)c3)[C@H]2O)[C@](C)(O)C[C@@H](C)CN[C@H](C)[C@@H](O)[C@]1(C)O [Example A-20, 1-((2S,3R,4S,6R)-2-(((2R,3S,4R,5R,8R,10R,11R,12S,13S,14R)-2-ethyl-3,4,10,13-tetrahydroxy-3,5,8,10,12,14-hexamethyl-15-oxo-1-oxa-6-azacyclopentadecan-11-yl)oxy)-3-hydroxy-6-methyltetrahydro-2H-pyran-4-yl)-3-(3-fluorophenyl)-1-methylurea] | > 64 µg/mL
8 | CC[C@H]1OC(=O)[C@H](C)[C@@H](O)[C@H](C)[C@@H](O[C@@H]2O[C@H](C)C[C@H](N(C)C(=O)Nc3cccc(OC)c3)[C@H]2O)[C@](C)(O)C[C@@H](C)CN[C@H](C)[C@@H](O)[C@]1(C)O [Example A-21, 1-((2S,3R,4S,6R)-2-(((2R,3S,4R,5R,8R,10R,11R,12S,13S,14R)-2-ethyl-3,4,10,13-tetrahydroxy-3,5,8,10,12,14-hexamethyl-15-oxo-1-oxa-6-azacyclopentadecan-11-yl)oxy)-3-hydroxy-6-methyltetrahydro-2H-pyran-4-yl)-3-(3-methoxyphenyl)-1-methylurea] | > 64 µg/mL
9 | CC[C@H]1OC(=O)[C@H](C)[C@@H](O)[C@H](C)[C@@H](O[C@@H]2O[C@H](C)C[C@H](N(C)C(=O)Nc3cccc(Cl)c3)[C@H]2O)[C@](C)(O)C[C@@H](C)CN[C@H](C)[C@@H](O)[C@]1(C)O [Example A-23, 3-(3-chlorophenyl)-1-((2S,3R,4S,6R)-2-(((2R,3S,4R,5R,8R,10R,11R,12S,13S,14R)-2-ethyl-3,4,10,13-tetrahydroxy-3,5,8,10,12,14-hexamethyl-15-oxo-1-oxa-6-azacyclopentadecan-11-yl)oxy)-3-hydroxy-6-methyltetrahydro-2H-pyran-4-yl)-1-methylurea] | > 64 µg/mL
10 | CC[C@H]1OC(=O)[C@H](C)[C@@H](O)[C@H](C)[C@@H](O[C@@H]2O[C@H](C)C[C@H](N(C)C(=O)Nc3ccc(C)cc3)[C@H]2O)[C@](C)(O)C[C@@H](C)CN[C@H](C)[C@@H](O)[C@]1(C)O [Example A-24, 1-((2S,3R,4S,6R)-2-(((2R,3S,4R,5R,8R,10R,11R,12S,13S,14R)-2-ethyl-3,4,10,13-tetrahydroxy-3,5,8,10,12,14-hexamethyl-15-oxo-1-oxa-6-azacyclopentadecan-11-yl)oxy)-3-hydroxy-6-methyltetrahydro-2H-pyran-4-yl)-1-methyl-3-(p-tolyl)urea] | > 64 µg/mL
11 | CC[C@H]1OC(=O)[C@H](C)[C@@H](O)[C@H](C)[C@@H](O[C@@H]2O[C@H](C)C[C@H](N(C)C(=O)Nc3cccc(C)c3)[C@H]2O)[C@](C)(O)C[C@@H](C)CN[C@H](C)[C@@H](O)[C@]1(C)O [Example A-25, 1-((2S,3R,4S,6R)-2-(((2R,3S,4R,5R,8R,10R,11R,12S,13S,14R)-2-ethyl-3,4,10,13-tetrahydroxy-3,5,8,10,12,14-hexamethyl-15-oxo-1-oxa-6-azacyclopentadecan-11-yl)oxy)-3-hydroxy-6-methyltetrahydro-2H-pyran-4-yl)-1-methyl-3-(m-tolyl)urea] | > 64 µg/mL
12 | CC[C@H]1OC(=O)[C@H](C)[C@@H](O)[C@H](C)[C@@H](O[C@@H]2O[C@H](C)C[C@H](N(C)C(=O)N(C)c3ccccc3)[C@H]2O)[C@](C)(O)C[C@@H](C)CN[C@H](C)[C@@H](O)[C@]1(C)O [Example A-26, 1-((2S,3R,4S,6R)-2-(((2R,3S,4R,5R,8R,10R,11R,12S,13S,14R)-2-ethyl-3,4,10,13-tetrahydroxy-3,5,8,10,12,14-hexamethyl-15-oxo-1-oxa-6-azacyclopentadecan-11-yl)oxy)-3-hydroxy-6-methyltetrahydro-2H-pyran-4-yl)-1,3-dimethyl-3-phenylurea] | > 64 µg/mL
13 | CC[C@H]1OC(=O)[C@H](C)[C@@H](O[C@H]2C[C@@](C)(OC)[C@@H](O)[C@H](C)O2)[C@H](C)[C@@H](O[C@@H]2O[C@H](C)C[C@H](N(C)C(=O)NC3CCCCC3)[C@H]2O)[C@](C)(O)C[C@@H](C)CN(C)[C@H](C)[C@@H](O)[C@]1(C)O [Example B-10, 3-cyclohexyl-1-((2S,3R,4S,6R)-2-(((2R,3S,4R,5R,8R,10R,11R,12S,13S,14R)-2-ethyl-3,4,10-trihydroxy-13-(((2R,4R,5S,6S)-5-hydroxy-4-methoxy-4,6-dimethyltetrahydro-2H-pyran-2-yl)oxy)-3,5,6,8,10,12,14-heptamethyl-15-oxo-1-oxa-6-azacyclopentadecan-11-yl)oxy)-3-hydroxy-6-methyltetrahydro-2H-pyran-4-yl)-1-methylurea] | > 64 µg/mL
14 | CC[C@H]1OC(=O)[C@H](C)[C@@H](O[C@H]2C[C@@](C)(OC)[C@@H](O)[C@H](C)O2)[C@H](C)[C@@H](O[C@@H]2O[C@H](C)C[C@H](N(C)C(=O)NC(C)(C)C)[C@H]2O)[C@](C)(O)C[C@@H](C)CN(C)[C@H](C)[C@@H](O)[C@]1(C)O [Example B-11, 3-(tert-butyl)-1-((2S,3R,4S,6R)-2-(((2R,3S,4R,5R,8R,10R,11R,12S,13S,14R)-2-ethyl-3,4,10-trihydroxy-13-(((2R,4R,5S,6S)-5-hydroxy-4-methoxy-4,6-dimethyltetrahydro-2H-pyran-2-yl)oxy)-3,5,6,8,10,12,14-heptamethyl-15-oxo-1-oxa-6-azacyclopentadecan-11-yl)oxy)-3-hydroxy-6-methyltetrahydro-2H-pyran-4-yl)-1-methylurea] | > 64 µg/mL
15 | CC[C@H]1OC(=O)[C@H](C)[C@@H](O[C@H]2C[C@@](C)(OC)[C@@H](O)[C@H](C)O2)[C@H](C)[C@@H](O[C@@H]2O[C@H](C)C[C@H](N(C)C(=O)Nc3ccc(C#N)cc3)[C@H]2O)[C@](C)(O)C[C@@H](C)CN(C)[C@H](C)[C@@H](O)[C@]1(C)O [Example B-12, 3-(4-cyanophenyl)-1-((2S,3R,4S,6R)-2-(((2R,3S,4R,5R,8R,10R,11R,12S,13S,14R)-2-ethyl-3,4,10-trihydroxy-13-(((2R,4R,5S,6S)-5-hydroxy-4-methoxy-4,6-dimethyltetrahydro-2H-pyran-2-yl)oxy)-3,5,6,8,10,12,14-heptamethyl-15-oxo-1-oxa-6-azacyclopentadecan-11-yl)oxy)-3-hydroxy-6-methyltetrahydro-2H-pyran-4-yl)-1-methylurea] | > 64 µg/mL
